The values that follow come from ChEMBL document CHEMBL1127088, “Analogues of platelet activating factor. 8. Antagonists of PAF containing an aromatic ring linked to a pyridinium ring” (J Med Chem, 1993).

For assay [1], the target named is Platelet-activating factor receptor (Mus musculus) (UniProt Q62035). Nature of the assay: Protection of PAF induced lethality in mouse after intraperitoneal dose of 1 mg/kg in saline 0.5 hr prior to an LD90 of PAF. The assay is classed as functional, organism-based. Also noted: dose 1 mg/kg.
Assay [2] concerns Oryctolagus cuniculus. Nature of the assay: Protection of PAF induced lethality in rabbit after intraperitoneal dose of 1 mg/kg in saline 0.5 hr prior to an LD90 of PAF. The assay is classed as functional. Particulars: ip.

Chain of Platelet-activating factor receptor (Mus musculus) (Q62035 whole entry): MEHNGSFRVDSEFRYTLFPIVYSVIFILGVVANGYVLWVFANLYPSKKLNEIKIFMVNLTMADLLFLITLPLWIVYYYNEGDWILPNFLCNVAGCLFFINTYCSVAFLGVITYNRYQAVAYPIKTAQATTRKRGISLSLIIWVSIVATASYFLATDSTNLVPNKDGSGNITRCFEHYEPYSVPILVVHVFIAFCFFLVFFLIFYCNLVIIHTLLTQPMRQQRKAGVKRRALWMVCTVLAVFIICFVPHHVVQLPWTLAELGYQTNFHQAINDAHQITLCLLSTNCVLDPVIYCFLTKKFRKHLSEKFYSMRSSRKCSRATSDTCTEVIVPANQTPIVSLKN

In assay [1], `CCCCCCCCCCOc1ccc(C(=O)N(Cc2cccc[n+]2C)C(C)=O)cc1C(C)(C)C` gave a Survival of 50%. `CCCCCCCCCCCCCCOc1ccc(C(=O)N(Cc2ccc[n+](C)c2)C(C)=O)cc1C(C)(C)C` had a Survival in assay [1] of 17%.

`CCCCCCCCCCCCCCOc1ccc(C(=O)NC(=O)c2cc[n+](CCC)cc2)cc1OC` registered a Survival in assay [1] of 33%. Take `CCCCCCCCCCCCCCOc1ccc(C(=O)NC(=O)c2ccc[n+](CCC)c2)cc1OC`: in assay [1], the Survival amounted to 42%. As for `CCCCCCCCCCCCCCOc1ccc(C(=O)N(Cc2cccc[n+]2C)C(C)=O)cc1OC`, the Survival in assay [1] came out at 58%. The same molecule returned a survival at 1 mg/kg in assay [2] of 75%. In assay [1], `CCCCCCCOc1ccc(C(=O)N(Cc2cccc[n+]2C)C(C)=O)cc1OCCCCCCC` came in with a Survival of 45%. The molecule further had a survival at 1 mg/kg in assay [2] of 0%. The molecule `CCCCCCCCCCCCCCOc1ccc(C(=O)N(Cc2cccc[n+]2CCC)C(C)=O)cc1OC` registered a Survival in assay [1] of 47%.

The molecule `CCCCCCCCCCCCCCOc1ccc(C(=O)N(Cc2cccc[n+]2C)C(C)=O)cc1OCCCCCCCCCCCCCC` had a Survival in assay [1] of 36%. In assay [1], `CCCCCCCCCCCCCCOc1ccc(COC(=O)N(Cc2cccc[n+]2C)C(C)=O)cc1` registered a Survival of 40%.

`CCCCCCCCCCCCCCOc1ccc(C(=O)N(Cc2cccc[n+]2C)C(C)=O)cc1C(C)(C)C` showed a Survival in assay [1] of 64%. Moreover, the survival at 1 mg/kg in assay [2] came to 100%. Regarding `CCCCCCCCCCCCCCOc1ccc(C(=O)N(Cc2cc[n+](C)cc2)C(C)=O)cc1C(C)(C)C`, the Survival in assay [1] was 27%. Still for that read-out and setting: the figure for `CCCCCCCCCCCCCCCCCCNC(=O)Oc1ccc(C(=O)N(Cc2cccc[n+]2C)C(C)=O)cc1C(C)(C)C` is 29%.

Turning to `CCCCCCCCCCCCCCOc1ccc(C(=O)N(Cc2cccc[n+]2C)C(C)=O)cc1`, the Survival in assay [1] stood at 27%. In turn, `CCCCCCCCCCCCCCOc1ccc(CN(Cc2cccc[n+]2CC)C(C)=O)cc1` gave a Survival in assay [1] of 40%. On to `CCCCCCCCCCCCCCOc1ccc(CN(Cc2cc[n+](C)cc2)C(C)=O)cc1`, for which the survival at 1 mg/kg in assay [2] turned out to be 0%. Regarding `CCCCCCCCCCCCCCOc1ccc(C(=O)N(Cc2cccc[n+]2CC)C(C)=O)cc1OC`, in assay [1], the Survival was 58%. This molecule came in with a survival at 1 mg/kg in assay [2] of 33%. Molecule `CCCCCCCCCCCCCCOc1ccc(CN(Cc2ccc[n+](C)c2)C(C)=O)cc1` gave a Survival in assay [1] of 38%.

Regarding `CCCCCCCCCCCCCCOc1ccc(CNC(=O)c2cccc[n+]2CC)cc1`, the Survival in assay [1] was found to be 36%. Same read-out and setting: the figure for `CCCCCCCCCCCCCCOc1ccc(C(=O)N(Cc2cccc[n+]2Cc2ccccc2)C(C)=O)cc1` is 0%. With `CCCCCCCCCCCCCCOc1cccc(OP(=O)([O-])Oc2cccc(C[n+]3csc(C)c3)c2)c1C(=O)OC`, the Survival in assay [1] was found to be 85%. The survival at 1 mg/kg in assay [2] was determined as 53%. Consider `CCCCCCCCCCCCCCOc1ccc(COC(=O)NCc2cccc[n+]2CC)cc1`, for which the Survival in assay [1] is 36%. In assay [1], `CCCCCCCCCCCCCCOc1cc(C(=O)N(Cc2cccc[n+]2C)C(C)=O)ccc1OC` gave a Survival of 21%. Turning to `CCCCCCCCCCCCCCOc1ccccc1CN(Cc1cccc[n+]1C)C(C)=O`, the Survival in assay [1] came out at 23%.
